molecular target: T1, VLA4 (Homo sapiens, UniProt P05556+P13612); experiment: Inhibition of VLA4-dependent adhesion to BSA-CS1; type: cell-based; details: binding of BCECF-labelled Ramos cells to BSA-CS1 coated wells, 2 mM MnCl2; read-out: IC50
T1 construct: endogenous in cells; host or cells: Ramos cells
Source text: For example, the cell adhesion inhibitory activity of these compounds may be measured by determining the concentration of inhibitor required to block the binding of VLA-4-expressing cells to fibronectin- or CS1-coated plates. In this assay microtiter wells are coated with either fibronectin (containing the CS-1 sequence) or CS-1. If CS-1 is used, it must be conjugated to a carrier protein, such as bovine serum albumin, in order to bind to the wells. Once the wells are coated, varying concentrations of the test compound are then added together with appropriately labelled, VLA-4-expressing cells. Alternatively, the test compound may be added first and allowed to incubate with the coated wells prior to the addition of the cells. The cells are allowed to incubate in the wells for at least 30 minutes. Following incubation, the wells are emptied and washed. Inhibition of binding is measured by quantitating the fluorescence or radioactivity bound to the plate for each of the various concentrations of test compound, as well as for controls containing no test compound.
VLA-4-expressing cells that may be utilized in this assay include Ramos cells, Jurkat cells, A375 melanoma cells, as well as human peripheral blood lymophocytes (PBLs). The cells used in this assay may be fluorescently or radioactively labelled.
This assay was used to assess the potency of VLA4-directed inhibitory compounds of this invention.
We dissolved BSA-SMCC (Pierce Chemical, Rockford, Ill.; Catalog #77115) in H2O at a concentration of 10 mg/mL. [SEQ ID NO:4]: […](“Cys-Tyr-CS1 peptide”), which we synthesized by conventional solid phase chemistry and purified by HPLC, was dissolved in 10 mM HEPES pH 5, 50 mM NaCl and 0.1 mM EDTA also at a concentration of 10 mg/mL. We then mixed 500 μL of BSA-SMCC, 250 μL of Cys-Tyr-CS1 peptide and 75 μL of 1 mM HEPES pH 7.5 and allowed the conjugation reaction to proceed for 30 minutes. We stopped the reaction by adding 1 μL of beta-mercaptoethanol. Samples were analyzed for cross-linking by SDS-PAGE.
We coated the wells of a Linbro titertek polystyrene 96-well flat bottom plate (Flow Laboratories, Maclean, Va.; catalog #76-231-05) with 100 μL of the above-described BSA-CS1 solution diluted to 1 μg/mL in 0.05 M NaHCO3 (15 mM NaHCO3, 35 mM Na2CO3) pH 9.2. Some wells were not coated with CS1 in order to assess non-specific cell binding (NSB). The plate was then incubated overnight at 4° C.
Following this incubation, the contents of the wells were removed by inverting and blotting the plate. All of the wells were then blocked with 100 μL of 1% BSA in PBS, 0.02% NaN3, for a minimum of one hour at room temperature.
Ramos cells are grown, maintained and labelled in RPMI 1640 culture medium containing 1% BSA. Just prior to running the assay, we added 2′,7′-bis-(2-carboxyethyl)-5 (and -6) carboxyfluorescein acetoxymethyl ester (“BCECF-AM”; Molecular Probes Inc., Eugene, Oreg.; catalog #B-1150) to a final concentration of 2 μM to a culture of Ramos cells (4×10^6 cells/mL). We incubated the cells for 20 minutes at 37° C.
Following labelling, the cells were washed twice in assay buffer (24 mM TRIS, 137 mM NaCl, 2.7 mM KCl, pH 7.4, containing 0.1% BSA and 2 mM glucose) to remove any cations originating from the culture medium. The cells were then resuspended in assay buffer to 4×10^6 cells/mL and 2 mM MnCl2 was added to upregulate VLA4 on the surface of the cells.
Immediately prior to running the assay, we removed the BSA blocking solution from the 96-well plates and washed the wells with 100 μL of assay buffer. We then added to each well 25 μL of test cell adhesion inhibitory compound at 2× the final concentration and 25 μL of the labelled Ramos cells. […] Each concentration of compound was tested in triplicate. The compound and cells are allowed to incubate for 30 minutes at room temperature.

T1 sequence (P13612 34-1032): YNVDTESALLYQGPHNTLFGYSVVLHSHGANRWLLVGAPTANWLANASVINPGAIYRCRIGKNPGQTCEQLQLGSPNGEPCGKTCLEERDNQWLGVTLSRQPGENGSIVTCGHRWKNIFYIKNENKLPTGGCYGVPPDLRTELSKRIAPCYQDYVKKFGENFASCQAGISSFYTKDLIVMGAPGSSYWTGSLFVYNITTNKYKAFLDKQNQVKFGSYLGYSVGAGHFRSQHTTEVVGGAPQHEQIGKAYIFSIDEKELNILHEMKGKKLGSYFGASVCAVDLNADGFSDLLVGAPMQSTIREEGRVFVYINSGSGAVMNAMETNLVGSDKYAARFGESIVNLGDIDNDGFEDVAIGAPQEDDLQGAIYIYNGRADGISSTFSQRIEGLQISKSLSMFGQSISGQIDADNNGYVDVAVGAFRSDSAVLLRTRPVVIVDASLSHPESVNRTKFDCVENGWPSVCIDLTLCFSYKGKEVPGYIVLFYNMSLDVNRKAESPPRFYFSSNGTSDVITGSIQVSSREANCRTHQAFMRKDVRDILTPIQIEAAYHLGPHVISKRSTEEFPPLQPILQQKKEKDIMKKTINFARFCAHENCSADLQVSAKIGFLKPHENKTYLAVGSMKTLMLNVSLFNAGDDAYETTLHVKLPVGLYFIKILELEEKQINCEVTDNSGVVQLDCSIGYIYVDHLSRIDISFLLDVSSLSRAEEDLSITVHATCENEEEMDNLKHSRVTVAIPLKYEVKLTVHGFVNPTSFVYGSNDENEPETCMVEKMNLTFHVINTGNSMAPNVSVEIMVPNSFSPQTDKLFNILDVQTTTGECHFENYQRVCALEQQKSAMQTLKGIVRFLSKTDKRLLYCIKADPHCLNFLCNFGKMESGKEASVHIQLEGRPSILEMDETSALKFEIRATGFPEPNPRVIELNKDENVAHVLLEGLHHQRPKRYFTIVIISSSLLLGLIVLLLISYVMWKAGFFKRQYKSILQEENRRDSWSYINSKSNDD
T1 sequence (P05556 21-798): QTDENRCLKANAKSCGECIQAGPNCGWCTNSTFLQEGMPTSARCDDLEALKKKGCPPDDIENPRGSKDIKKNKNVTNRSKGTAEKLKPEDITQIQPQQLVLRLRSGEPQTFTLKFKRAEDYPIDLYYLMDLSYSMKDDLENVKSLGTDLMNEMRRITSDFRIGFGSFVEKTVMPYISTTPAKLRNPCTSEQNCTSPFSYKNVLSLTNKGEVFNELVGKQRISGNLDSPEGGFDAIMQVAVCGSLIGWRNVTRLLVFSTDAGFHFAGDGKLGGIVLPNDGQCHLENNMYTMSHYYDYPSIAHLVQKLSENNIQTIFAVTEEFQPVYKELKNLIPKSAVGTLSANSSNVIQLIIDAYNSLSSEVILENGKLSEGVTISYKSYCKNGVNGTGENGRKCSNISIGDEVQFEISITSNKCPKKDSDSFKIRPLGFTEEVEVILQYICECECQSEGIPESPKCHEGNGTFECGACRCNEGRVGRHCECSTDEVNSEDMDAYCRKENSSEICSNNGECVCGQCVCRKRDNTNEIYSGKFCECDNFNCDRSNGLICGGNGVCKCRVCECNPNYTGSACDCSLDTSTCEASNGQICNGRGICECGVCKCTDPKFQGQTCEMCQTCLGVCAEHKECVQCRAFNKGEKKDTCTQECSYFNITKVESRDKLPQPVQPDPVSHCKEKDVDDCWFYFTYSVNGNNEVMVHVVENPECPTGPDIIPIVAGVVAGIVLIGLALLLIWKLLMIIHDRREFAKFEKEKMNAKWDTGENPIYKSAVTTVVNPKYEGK

SMILES	IC50
Cc1ccccc1NC(=O)Nc1ccc(CC(=O)N[C@@H](CC(C)C)C(=O)N[C@@H](CC(=O)O)C(=O)N[C@H](CC(N)=O)C(N)=O)cc1 [Compound 237]	< 0.05 µM
Cc1ccccc1NC(=O)Nc1ccc(CC(=O)N[C@@H](CC(C)C)C(=O)N[C@@H](CC(=O)O)C(=O)N[C@H](CCC(=O)O)C(N)=O)cc1 [Compound 238]	< 0.05 µM
Cc1ccccc1NC(=O)Nc1ccc(CC(=O)N[C@@H](CC(C)C)C(=O)N[C@@H](CC(=O)O)C(=O)N[C@@H](Cc2c[nH]c3ccccc23)C(N)=O)cc1 [Compound 239]	< 0.05 µM
Cc1ccccc1NC(=O)Nc1ccc(CC(=O)N[C@@H](CC(C)C)C(=O)N[C@@H](CC(=O)O)C(=O)N[C@H](CO)C(N)=O)cc1 [Compound 240]	< 0.05 µM
Cc1ccccc1NC(=O)Nc1ccc(CC(=O)N2CCC[C@H]2C(=O)N[C@@H](CC(=O)O)C(=O)N[C@@H](CC(=O)O)C(N)=O)cc1 [Compound 241]	< 0.05 µM
Cc1ccccc1NC(=O)Nc1ccc(CC(=O)N2CCC[C@H]2C(=O)N[C@@H](CC(=O)O)C(=O)N[C@@H](CC(C)C)C(N)=O)cc1 [Compound 242]	< 0.05 µM
Cc1ccccc1NC(=O)Nc1ccc(CC(=O)N2CCC[C@H]2C(=O)N[C@@H](CC(=O)O)C(=O)N[C@H](C(N)=O)C(C)C)cc1 [Compound 243]	< 0.05 µM
Cc1ccccc1NC(=O)Nc1ccc(CC(=O)N2CCC[C@H]2C(=O)N[C@@H](CC(=O)O)C(=O)N[C@H](CC(C)C)C(N)=O)cc1 [Compound 244]	< 0.05 µM
Cc1ccccc1NC(=O)Nc1ccc(CC(=O)N2CCC[C@H]2C(=O)N[C@@H](CC(=O)O)C(=O)N[C@@H](CCC(=O)O)C(N)=O)cc1 [Compound 245]	< 0.05 µM
Cc1ccccc1NC(=O)Nc1ccc(CC(=O)N2CCC[C@H]2C(=O)N[C@@H](CC(=O)O)C(=O)N[C@H](C(N)=O)[C@@H](C)O)cc1 [Compound 246]	< 0.05 µM
Cc1ccccc1NC(=O)Nc1ccc(CC(=O)N2CCC[C@H]2C(=O)N[C@@H](CC(=O)O)C(=O)N[C@H](CC(N)=O)C(N)=O)cc1 [Compound 248]	< 0.05 µM
Cc1ccccc1NC(=O)Nc1ccc(CC(=O)N2CCC[C@H]2C(=O)N[C@@H](CC(=O)O)C(=O)N[C@H](CCC(=O)O)C(N)=O)cc1 [Compound 249]	< 0.05 µM
Cc1ccccc1NC(=O)Nc1ccc(CC(=O)N2CCC[C@H]2C(=O)N[C@@H](CC(=O)O)C(=O)N[C@@H](Cc2c[nH]c3ccccc23)C(N)=O)cc1 [Compound 250]	< 0.05 µM
Cc1ccccc1NC(=O)Nc1ccc(CC(=O)N2CCCC2C(=O)NC(CC(=O)O)C(=O)NC(CO)C(N)=O)cc1 (stereo not drawn) [Compound 251]	< 0.05 µM
Cc1ccccc1NC(=O)Nc1ccc(CC(=O)N[C@H](C(=O)N[C@@H](CC(=O)O)C(=O)N[C@@H](CC(=O)O)C(N)=O)[C@@H](C)O)cc1 [Compound 252]	< 0.05 µM
Cc1ccccc1NC(=O)Nc1ccc(CC(=O)N[C@H](C(=O)N[C@@H](CC(=O)O)C(=O)N[C@@H](CC(C)C)C(N)=O)[C@@H](C)O)cc1 [Compound 253]	< 0.05 µM
Cc1ccccc1NC(=O)Nc1ccc(CC(=O)N[C@H](C(=O)N[C@@H](CC(=O)O)C(=O)N[C@H](C(N)=O)C(C)C)[C@@H](C)O)cc1 [Compound 254]	< 0.05 µM
Cc1ccccc1NC(=O)Nc1ccc(CC(=O)N[C@H](C(=O)N[C@@H](CC(=O)O)C(=O)N[C@H](CC(C)C)C(N)=O)[C@@H](C)O)cc1 [Compound 255]	< 0.05 µM
Cc1ccccc1NC(=O)Nc1ccc(CC(=O)N[C@H](C(=O)N[C@@H](CC(=O)O)C(=O)N[C@@H](CCC(=O)O)C(N)=O)[C@@H](C)O)cc1 [Compound 256]	< 0.05 µM
Cc1ccccc1NC(=O)Nc1ccc(CC(=O)N[C@H](C(=O)N[C@@H](CC(=O)O)C(=O)N[C@H](C(N)=O)[C@@H](C)O)[C@@H](C)O)cc1 [Compound 257]	< 0.05 µM
CSCC[C@H](NC(=O)[C@H](CC(=O)O)NC(=O)[C@@H](NC(=O)Cc1ccc(NC(=O)Nc2ccccc2C)cc1)[C@@H](C)O)C(N)=O [Compound 258]	< 0.05 µM
Cc1ccccc1NC(=O)Nc1ccc(CC(=O)N[C@H](C(=O)N[C@@H](CC(=O)O)C(=O)N[C@H](CC(N)=O)C(N)=O)[C@@H](C)O)cc1 [Compound 259]	< 0.05 µM
Cc1ccccc1NC(=O)Nc1ccc(CC(=O)N[C@H](C(=O)N[C@@H](CC(=O)O)C(=O)N[C@H](CCC(=O)O)C(N)=O)[C@@H](C)O)cc1 [Compound 260]	< 0.05 µM
Cc1ccccc1NC(=O)Nc1ccc(CC(=O)N[C@H](C(=O)N[C@@H](CC(=O)O)C(=O)N[C@@H](Cc2c[nH]c3ccccc23)C(N)=O)[C@@H](C)O)cc1 [Compound 261]	< 0.05 µM

Now from value to compound:

IC50	SMILES
< 0.05 µM	Cc1ccccc1NC(=O)Nc1ccc(CC(=O)N[C@H](C(=O)N[C@@H](CC(=O)O)C(=O)N[C@H](CO)C(N)=O)[C@@H](C)O)cc1 [Compound 262]
< 0.05 µM	Cc1ccccc1NC(=O)Nc1ccc(CC(=O)N[C@@H](CCC(=O)O)C(=O)N[C@@H](CC(=O)O)C(=O)N[C@@H](CC(=O)O)C(N)=O)cc1 [Compound 263]
< 0.05 µM	Cc1ccccc1NC(=O)Nc1ccc(CC(=O)N[C@@H](CCC(=O)O)C(=O)N[C@@H](CC(=O)O)C(=O)N[C@@H](CC(C)C)C(N)=O)cc1 [Compound 264]
< 0.05 µM	Cc1ccccc1NC(=O)Nc1ccc(CC(=O)N[C@@H](CCC(=O)O)C(=O)N[C@@H](CC(=O)O)C(=O)N[C@H](C(N)=O)C(C)C)cc1 [Compound 265]
< 0.05 µM	Cc1ccccc1NC(=O)Nc1ccc(CC(=O)N[C@@H](CCC(=O)O)C(=O)N[C@@H](CC(=O)O)C(=O)N[C@H](CC(C)C)C(N)=O)cc1 [Compound 266]
< 0.05 µM	Cc1ccccc1NC(=O)Nc1ccc(CC(=O)N[C@@H](CCC(=O)O)C(=O)N[C@@H](CC(=O)O)C(=O)N[C@@H](CCC(=O)O)C(N)=O)cc1 [Compound 267]
< 0.05 µM	Cc1ccccc1NC(=O)Nc1ccc(CC(=O)N[C@@H](CCC(=O)O)C(=O)N[C@@H](CC(=O)O)C(=O)N[C@H](C(N)=O)[C@@H](C)O)cc1 [Compound 268]
< 0.05 µM	CSCC[C@H](NC(=O)[C@H](CC(=O)O)NC(=O)[C@H](CCC(=O)O)NC(=O)Cc1ccc(NC(=O)Nc2ccccc2C)cc1)C(N)=O [Compound 269]
< 0.05 µM	Cc1ccccc1NC(=O)Nc1ccc(CC(=O)N[C@@H](CCC(=O)O)C(=O)N[C@@H](CC(=O)O)C(=O)N[C@H](CC(N)=O)C(N)=O)cc1 [Compound 270]
< 0.05 µM	Cc1ccccc1NC(=O)Nc1ccc(CC(=O)N[C@@H](CCC(=O)O)C(=O)N[C@@H](CC(=O)O)C(=O)N[C@H](CCC(=O)O)C(N)=O)cc1 [Compound 271]
< 0.05 µM	Cc1ccccc1NC(=O)Nc1ccc(CC(=O)N[C@@H](CCC(=O)O)C(=O)N[C@@H](CC(=O)O)C(=O)N[C@@H](Cc2c[nH]c3ccccc23)C(N)=O)cc1 [Compound 272]
< 0.05 µM	Cc1ccccc1NC(=O)Nc1ccc(CC(=O)N[C@@H](CCC(=O)O)C(=O)N[C@@H](CC(=O)O)C(=O)N[C@H](CO)C(N)=O)cc1 [Compound 273]
< 0.05 µM	Cc1ccccc1NC(=O)Nc1ccc(CC(=O)N[C@@H](CS)C(=O)N[C@@H](CC(=O)O)C(=O)N[C@H](C(N)=O)C(C)C)cc1 [Compound 274]
< 0.05 µM	Cc1ccccc1NC(=O)Nc1ccc(CC(=O)N[C@@H](CO)C(=O)N[C@@H](CC(=O)O)C(=O)N[C@@H](CC(=O)O)C(N)=O)cc1 [Compound 275]
< 0.05 µM	Cc1ccccc1NC(=O)Nc1ccc(CC(=O)N[C@@H](CO)C(=O)N[C@@H](CC(=O)O)C(=O)N[C@@H](CC(C)C)C(N)=O)cc1 [Compound 276]
